Reference: patent US20250008959A1, “HERBICIDES AND USE THEREOF” (Projini Agchem LTD, priority 2021, published 2025)

Legend:
[1] = target: T1, AtOASS (O-acetyl serine sulfhydrylase from Arabidopsis thaliana) (Arabidopsis thaliana, UniProt P47998); experiment: Isothermal titration calorimetry (ITC) binding to OASS; details: for Kd: OASS titrated into compound in ITC cell, single binding model
T1 construct: GST (N, cleaved yes); made in house; host or cells: E. coli Rosetta (DE3)
From the text: To evaluate the ability of the molecules to bind AtOASS (O-acetyl serine sulfhydrylase from Arabidopsis thaliana), the protein was placed in the ITC syringe and was titrated with the molecules that were placed in the ITC cell (see Examples section below). The direct dissociation binding constant (Kd) was then extracted from the binding curve using a single binding model, wherein a low Kd value corresponds to a stronger binding affinity.
To evaluate the binding of the small molecules to the enzyme OASS, the purified protein was placed in a 6-8 MWCO dialysis bag in 30 mM phosphate buffer, 30 mM NaCl, 1 mM TCEP, and 5% dimethyl sulfoxide. Sequential buffer exchange dialyses were executed for 12 hours each at 4° C. until dilution of >10,000 was achieved. Before the execution of the ITC binding experiment, the OASS was placed in the ITC syringe at a concentration of 400 μM and each of the small molecules was dissolved in the same dialysis buffer to a final concentration of 40 μM in the ITC cell. ITC experiments were conducted by titrating the OASS to the compounds in the cell. The ITC binding constant was evaluated using the build-in analysis software.
The designed de-novo herbicidal compounds were synthesized and evaluated for their in vitro and in planta activity. After dissolving the molecules to a stock of 50 mM in DMSO, binding and competition with the SAT-derived peptides were evaluated using ITC and FP. ITC measures the direct heat change occurring due to the interaction of a pair of molecules. ITC has certain advantages, such as the capability to detect a relatively broad range of binding affinities, being a label-free method, and providing a wide set of interaction parameters, such as affinity, stoichiometry, enthalpy, and entropy of binding. To evaluate the ability of the molecules to bind AtOASS, the protein was placed in the ITC syringe and was titrated with the molecules that were placed in the ITC cell. The direct dissociation binding constant (Kd) was then extracted from the binding curve using a single binding model. Two consecutive experiments were combined using the built in ITC module to enable better quantification. A low Kd value corresponds to a stronger binding affinity.

[2] = target: T2, OASS-SAT complex (AtOASS with SAT-derived peptide) (Arabidopsis thaliana, UniProt P47998); experiment: Fluorescence polarization (FP) competition with FITC-labeled SAT-derived peptide bound to OASS; assay type: binding; details: competition with FITC-SAT peptide 200 nM, OASS 2.2 μM; for IC50: single site inhibition model
T2 construct: GST (N, cleaved yes); made in house; host or cells: E. coli Rosetta (DE3)
Description: Molecules were also tested for their ability to compete with the OASS binding to the SAT-derived peptide via a fluorescence polarization (FP) competition assay wherein the N-terminus labeled peptide was incubated with the AtOASS (see Examples section below). High FP values correspond to the peptide-bound state (low molecule concentrations) and low FP values correspond to the peptide-free state (low FP values). To extract the IC50, the FP data were fitted to a single site inhibition model in PRISM by GraphPad Software. The corresponding IC50 values were extracted, whereas low IC50 values correspond to molecule that better competes with the peptide binding to AtOASS. Fluorescence polarization (FP) measurements were made on samples arrayed in 96-well plates by using BioTek H1 Synergy instrument equipped with FP module. […] The peptide in a concentration of 200 nM was incubated with OASS at a concentration of 2.2 μM in each well. Variable concentrations of each molecule starting from 100 μM down to 0.048 μM were added to evaluate the ability of each molecule to compete off the FITC labeled peptide bound to OASS. Fluorescence experiments were executed with an Em/Exc wavelengths of 480/520 nm. All measurements were done in triplicate. Experimental polarization data from simple and competitive binding experiments were fitted using GraphPad Prism, with error bars representing SD. Molecules were also tested for their ability to compete with the OASS binding to the SAT-derived peptide via a fluorescence polarization (FP) competition assay. The N-terminus labeled peptide was incubated with the AtOASS in each of the wells in a 96-well plate. Various concentrations of the molecules were added and the FP values were recorded. High FP values correspond to the peptide-bound state (low molecule concentrations) and low FP values correspond to the peptide-free state (low FP values). To extract the IC50, the FP data were fitted to a single site inhibition model in graphpad prism. The corresponding IC50 values were extracted. Low IC50 values correspond to molecule that better competes with the peptide binding to AtOASS.

Arabidopsis thaliana = experiment: Root elongation in plates (in planta root elongation assay); assay type: in vivo; details: 168 h, A. thaliana on MS medium plates, 7 days, read-out: Root-growth inhibition %
Description: 6-well plates were prepared in a biological hood with sterile half Murashige and Skoog mineral medium (MS; Duchefa, Haarlem, Netherlands) containing 1% sucrose (w/v), pH 5.8. Tested molecules were dissolved in 50 mM DMSO and diluted to various concentrations 1,000-fold greater than the final desired concentration the MS medium maintaining a final concentration of 0.1% DMSO. MS medium with 0.1% DMSO was used as a negative control. After 7 days the plates were scanned and the root length was calculated using the imageJ software. […] Further sterilization was done by washing the seeds with 50% hypochlorite and 0.2% Triton x-100 for 10 minutes followed by five cycles of washing with sterile water. Six seeds were placed in each well, and the plates were covered and sealed with parafilm. Plates were placed vertically at 4° C. for two days and then transferred to a growth chamber for seven days (22-24° C.) at day/light cycles of 16/8 hours. Following the in vitro evaluation, selected molecules were tested for their ability to inhibit A. thaliana root elongation on agar plates. Seeds were plated on medium containing the molecules dissolved in the indicated concentrations and root length was measured after 6 or 7 days when the root in the non-treated plate reached the end of the well.

T1 sequence (P47998 whole entry): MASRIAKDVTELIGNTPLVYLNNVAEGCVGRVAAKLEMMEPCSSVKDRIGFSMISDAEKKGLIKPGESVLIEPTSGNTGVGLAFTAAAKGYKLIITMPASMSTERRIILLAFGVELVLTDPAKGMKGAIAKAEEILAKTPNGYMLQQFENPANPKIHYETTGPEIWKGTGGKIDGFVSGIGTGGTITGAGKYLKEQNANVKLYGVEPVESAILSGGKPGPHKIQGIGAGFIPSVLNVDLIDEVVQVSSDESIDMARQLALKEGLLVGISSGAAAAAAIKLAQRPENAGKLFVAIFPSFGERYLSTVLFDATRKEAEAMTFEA
T2 sequence (P47998 whole entry, one chain of several): as the sequence (P47998 whole entry) above

Kd [1] [µM]	FP % inhibition [2] [%]	IC50 [2] [µM]	direct binding to AtOASS by ITC (in vitro screening of purchased virtual hits) ([1]; result in words)	Compound	inhibition at 50 µM (Arabidopsis thaliana) [%]
19.8	16	97	–	CC(C)n1nnc(-c2ccc(O)c(NC(=O)Cc3ccccc3C(=O)O)c2)n1 [PJL-208]	0
3	58	2.1	–	COc1ccc(-c2csc(NC(=O)c3cc(C)ccc3-c3ccccc3C(=O)O)n2)cc1 [PJL-126]	93
8.6	17	30.8	–	CCc1nnc(NC(=O)c2ccccc2-c2ccccc2C(=O)O)s1 [PJL-66]	0
5.6	11	225	–	COc1ccc(NC(=O)c2ccc(NS(=O)(=O)c3cc(C(=O)O)ccc3OC)cc2)cc1 [PJS-31]	0
4.8	19	34	showed direct binding to AtOASS by ITC	O=C(O)c1cc(F)ccc1NS(=O)(=O)c1cnc(-c2ccc(F)cc2)s1 [PJL-41]	85
28	23	32	–	O=C(O)c1cc(F)ccc1NS(=O)(=O)c1cnc(-c2ccccc2)o1 [PJL-81]	15
8.11	34	10.6	–	O=C(O)c1ccccc1-c1ccccc1C(=O)Nc1cccc(C(F)(F)F)c1 [PJS-212]	34
5.3	21	–	–	O=C(Cc1ccccc1C(=O)O)Nc1cccc(C(=O)Nc2nccs2)c1 [PJL-93]	0
3.5	13	132	–	O=C(O)c1cc2c(c(S(=O)(=O)Nc3cc(Cl)c(Cl)c(C(=O)O)c3)c1)CCC2 [PJL-29]	11
9.9	17	87	–	Cc1ccnn1-c1cccc(NS(=O)(=O)c2cc(C(=O)O)cc3c2CCC3)c1 [PJL-43]	6
10.9	24	44	–	O=C(O)c1cc(F)ccc1NS(=O)(=O)c1cnn(-c2cccc(C(F)(F)F)c2)c1 [PJL-84]	47
3.4	23	12.8	–	O=C(O)c1ccccc1-c1ccccc1C(=O)Nc1cccc(O)c1 [PJL-64]	23
18.3	16	–	–	O=C(O)c1cc2c(c(S(=O)(=O)Nc3cccc(-n4cccn4)c3)c1)CCC2 [PJL-76]	0
3.4	32	10	–	O=C(O)c1ccccc1-c1ccccc1C(=O)Nc1cccc(NNc2nccs2)c1 [PJL-68]	0
1.48	34	6.3	–	O=C(Nc1cccc(O)c1)c1cccc(NC(=O)c2ccccc2-c2ccccc2C(=O)O)c1 [PJL-63]	12
6.11	24	21	–	O=C(O)c1cc2c(c(S(=O)(=O)Nc3cccc(-c4n[nH]c(C5CC5)n4)c3)c1)CCC2 [PJL-71]	17
11.6	17	63.9	–	O=C(O)c1cccc(NC2=C(Cl)C(=O)N(c3cc(Cl)ccc3Cl)C2=O)c1 [PJL-211]	72
2	31	6.7	–	O=C(Nc1nccs1)c1cccc(NC(=O)c2ccccc2-c2ccccc2C(=O)O)c1 [PJL-62]	0
9.9	17	74	–	O=C(O)c1ccccc1NS(=O)(=O)c1cnc(-c2ccccc2)s1 [PJL-83]	0
1.27	32	4.8	–	O=C(Nc1cccc(NC(=O)c2ccccc2-c2ccccc2C(=O)O)c1)c1ccco1 [PJL-60]	0
